Key:
[1] = test system: human GIPr and the human GLP-2r; test: Cyclic AMP assay (FRET, H74 probe), HEK-293 co-transfected with human GIPr and human GLP-2r; type: cell-based; conditions: 10^-9 M
Experimental: (§1) Human HEK-293 cells were plated at a density of 2×10^5 cells/cm^2 in 4 well microslides (ibidi GmbH, Martinsried, Germany). […] Jalink (Netherland Cancer Institute, Amsterdam, Netherland). […] The image acquisition was performed with a 63 X, 1.4 N.A. oil immersion objective and a Hybrid® detector (Leica) and images were collected after 30 minutes. Donor excitation was made with a 458 nm Ar laser, donor emission was collected between 460-505 nm and acceptor emission between 520-600 nm by setting the SP8 spectrometer accordingly. FRET was expressed as the ratio between donor and acceptor signals.

[2] = target: T1, human GIPr (Homo sapiens, UniProt P48546); test: Cyclic AMP assay (FRET, H74 probe), HEK-293 transfected with human GIPr; type: cell-based; conditions: HEK 293 transfected only with human GIPr, 10^-9 M, 30 min (FIG. 16)
T1 construct: host or cells: HEK-293
T1 sequence (P48546 22-466): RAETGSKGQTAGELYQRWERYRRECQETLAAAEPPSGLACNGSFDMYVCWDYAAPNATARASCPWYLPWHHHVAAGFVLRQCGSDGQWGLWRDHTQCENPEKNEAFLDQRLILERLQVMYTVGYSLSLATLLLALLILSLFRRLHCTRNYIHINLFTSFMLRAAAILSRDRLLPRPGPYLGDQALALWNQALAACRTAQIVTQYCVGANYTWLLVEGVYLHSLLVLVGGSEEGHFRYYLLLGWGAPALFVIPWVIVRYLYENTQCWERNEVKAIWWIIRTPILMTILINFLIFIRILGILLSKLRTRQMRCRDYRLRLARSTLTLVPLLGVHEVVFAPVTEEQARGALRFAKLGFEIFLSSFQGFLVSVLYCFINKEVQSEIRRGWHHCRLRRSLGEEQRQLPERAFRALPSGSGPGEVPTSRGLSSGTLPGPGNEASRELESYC
Experimental: as §1

[3] = test system: ovariectomy-induced bone loss in mice; test: Trabecular bone microarchitecture, fifth lumbar vertebra, ovariectomized mice; type: in vivo; conditions: OVX mice, L5, 25 nmoles/kg/day, vs vehicle
Experimental: At 16 weeks of age, ALZET osmotic pumps (model number 2006, Durect Corp., Cupertino, CA) filled with the below saline or peptide were implanted subcutaneously between the two scapula under general anesthesia in 32 mice. Successful filling of pumps was verified by weighting the pump before and after filling. At 20 weeks of age, ALZET osmotic pumps were replaced by similar pumps to ensure delivery for four new weeks. […] This dose and regimen of zoledronic acid was equivalent to the 5 mg infusion approved for the treatment of post-menopausal osteoporosis in humans. Analyses of vertebral bodies of the fifth lumbar vertebra (L5) were performed with a Nanotom nanotomograph (Phoenix, GE, USA) operated at 85 kV, 220 μA, 1000 ms integration time. The isotropic pixel size was fixed at 4 μm, the rotation step at 0.25° and exposure was done with a 0.1 mm copper filter. Each 3D reconstruction image dataset was binarized using global thresholding. Trabecular volume of interest was computerized on coronal sections of the L5 vertebral body. Trabecular VOI was spread over the entire vertebral body excluding the first and last 80 μm from the anterior and posterior cortical wall. All microCT/NanoCT parameters were determined according to guidelines and nomenclature proposed by the American Society for Bone and Mineral Research (Bouxsein et al., 2010).

| SMILES | intracellular levels of cAMP ([1]; HEK 293 co-transfected with human GIPr and human GLP-2r, 30 min (FIG. 18)) | magnitude of cAMP rise versus native peptides ([1]; co-transfected HEK 293 cells) | intracellular levels of cAMP [2] | reduction in trabecular spacing [3] [%] |
| --- | --- | --- | --- | --- |
| CC[C@H](C)[C@H](NC(=O)[C@H](CO)NC(=O)[C@H](CCSC)NC(=O)[C@H](CC(=O)O)NC(=O)[C@H](CO)NC(=O)CNC(=O)[C@H](Cc1ccccc1)NC(=O)[C@H](CO)NC(=O)CNC(=O)[C@H](CCC(=O)O)NC(=O)CNC(=O)[C@@H](N)Cc1c[nH]cn1)C(=O)N[C@@H](C)C(=O)N[C@@H](CC(C)C)C(=O)N[C@@H](CC(=O)O)C(=O)N[C@@H](CCCCN)C(=O)N[C@@H](CC(C)C)C(=O)N[C@@H](C)C(=O)N[C@@H](C)C(=O)N[C@@H](CCCNC(=N)N)C(=O)N[C@@H](CC(=O)O)C(=O)N[C@@H](Cc1ccccc1)C(=O)N[C@H](C(=O)N[C@@H](CC(N)=O)C(=O)N[C@@H](Cc1c[nH]c2ccccc12)C(=O)N[C@@H](CC(C)C)C(=O)N[C@@H](CC(C)C)C(=O)N[C@@H](CCC(N)=O)C(=O)N[C@H](C(=O)N[C@@H](CCCCN)C(=O)N[C@H](C(=O)N[C@H](C(=O)N[C@@H](CC(=O)O)C(=O)O)[C@@H](C)O)[C@@H](C)CC)[C@@H](C)O)C(C)C [GL-0001] | increased intracellular levels of cAMP | greater with GL-0001 than with each native peptide | increased intracellular levels of cAMP | – |
| CC[C@H](C)[C@H](NC(=O)[C@H](CO)NC(=O)[C@H](Cc1ccccc1)NC(=O)[C@H](CC(=O)O)NC(=O)[C@H](CO)NC(=O)CNC(=O)[C@H](Cc1ccccc1)NC(=O)[C@H](CO)NC(=O)CNC(=O)[C@H](CCC(=O)O)NC(=O)CNC(=O)[C@@H](N)Cc1c[nH]cn1)C(=O)N[C@@H](C)C(=O)N[C@@H](CC(C)C)C(=O)N[C@@H](CC(=O)O)C(=O)N[C@@H](CCCCN)C(=O)N[C@@H](CC(C)C)C(=O)N[C@@H](C)C(=O)N[C@@H](C)C(=O)N[C@@H](CCCNC(=N)N)C(=O)N[C@@H](CC(=O)O)C(=O)N[C@@H](Cc1ccccc1)C(=O)N[C@H](C(=O)N[C@@H](CC(N)=O)C(=O)N[C@@H](Cc1c[nH]c2ccccc12)C(=O)N[C@@H](CC(C)C)C(=O)N[C@@H](CC(C)C)C(=O)N[C@@H](CCC(N)=O)C(=O)N[C@H](C(=O)N[C@@H](CCCCN)C(N)=O)[C@@H](C)O)C(C)C [GL-0007] | – | – | – | 17 |
